From paper PMC7392148 (Bioorganic & medicinal chemistry, 2020)

Experiments:
panel of 168 GPCRs = test: PathHunter β-arrestin cell-based assays, antagonist primary screen; details: for antagonistic activity in the primary screen: 20 μM, significant = ≥80% inhibition; for hit rate: from the 168 GPCRs tested; for number of GPCRs antagonized at ≥80% inhibition: primary screen at 20 μM
[1] = target: T1, 5-hydroxytryptamine (serotonin) receptor (HTR2C) (Homo sapiens, UniProt P28335); test: PathHunter β-arrestin antagonist assay; format: cell-based
T1 sequence (P28335 33-458): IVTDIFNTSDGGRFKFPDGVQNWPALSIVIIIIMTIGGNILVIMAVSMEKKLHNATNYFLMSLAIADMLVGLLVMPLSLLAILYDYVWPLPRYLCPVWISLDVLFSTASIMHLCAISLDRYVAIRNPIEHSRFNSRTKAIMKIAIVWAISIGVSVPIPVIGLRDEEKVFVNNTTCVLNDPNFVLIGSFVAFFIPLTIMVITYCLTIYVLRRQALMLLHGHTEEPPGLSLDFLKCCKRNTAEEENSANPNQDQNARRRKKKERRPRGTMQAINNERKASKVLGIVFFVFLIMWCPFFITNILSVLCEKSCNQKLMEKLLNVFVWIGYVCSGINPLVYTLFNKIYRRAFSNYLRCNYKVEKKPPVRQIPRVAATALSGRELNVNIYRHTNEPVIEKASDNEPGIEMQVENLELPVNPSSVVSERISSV

CX3CR1 = target: T2, CX3CR1 (Homo sapiens, UniProt P49238); test: PathHunter β-arrestin antagonist assay; format: cell-based
T2 sequence (P49238 1-355): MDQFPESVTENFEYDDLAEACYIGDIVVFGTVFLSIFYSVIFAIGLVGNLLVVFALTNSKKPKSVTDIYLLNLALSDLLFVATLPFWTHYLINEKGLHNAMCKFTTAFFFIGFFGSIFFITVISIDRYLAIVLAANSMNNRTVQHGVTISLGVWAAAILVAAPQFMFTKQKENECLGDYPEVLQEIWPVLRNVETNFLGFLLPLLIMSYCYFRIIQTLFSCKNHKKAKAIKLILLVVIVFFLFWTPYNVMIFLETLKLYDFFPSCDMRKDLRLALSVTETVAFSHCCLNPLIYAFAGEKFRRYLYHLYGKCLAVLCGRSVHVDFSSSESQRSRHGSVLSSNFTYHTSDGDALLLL

chemokine receptor CCR8 = chemokine receptor CCR8 (Homo sapiens, UniProt P51685); test: PathHunter β-arrestin antagonist assay; format: cell-based
CXCR4 = CXCR4 (Homo sapiens, UniProt P61073); test: PathHunter β-arrestin antagonist assay; format: cell-based
chemokine receptor CCR3 = target: T3, chemokine receptor CCR3 (Homo sapiens, UniProt P51677); test: PathHunter β-arrestin antagonist assay; format: cell-based
T3 sequence (P51677 1-355): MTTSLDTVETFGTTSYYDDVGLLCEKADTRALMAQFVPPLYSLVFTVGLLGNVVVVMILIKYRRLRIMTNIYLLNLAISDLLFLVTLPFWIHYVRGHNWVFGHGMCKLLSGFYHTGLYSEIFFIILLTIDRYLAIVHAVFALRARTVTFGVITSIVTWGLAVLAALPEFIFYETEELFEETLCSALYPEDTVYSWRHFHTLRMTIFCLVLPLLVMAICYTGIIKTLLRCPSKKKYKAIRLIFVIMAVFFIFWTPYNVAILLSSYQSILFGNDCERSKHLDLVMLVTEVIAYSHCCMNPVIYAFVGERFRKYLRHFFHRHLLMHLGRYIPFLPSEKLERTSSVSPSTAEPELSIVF

[2] = target: T4, neuropeptide S receptor 1 (NPSR1B) (Homo sapiens, UniProt Q6W5P4); test: PathHunter β-arrestin antagonist assay; format: cell-based
T4 sequence (Q6W5P4 1-377 isoform Q6W5P4-4): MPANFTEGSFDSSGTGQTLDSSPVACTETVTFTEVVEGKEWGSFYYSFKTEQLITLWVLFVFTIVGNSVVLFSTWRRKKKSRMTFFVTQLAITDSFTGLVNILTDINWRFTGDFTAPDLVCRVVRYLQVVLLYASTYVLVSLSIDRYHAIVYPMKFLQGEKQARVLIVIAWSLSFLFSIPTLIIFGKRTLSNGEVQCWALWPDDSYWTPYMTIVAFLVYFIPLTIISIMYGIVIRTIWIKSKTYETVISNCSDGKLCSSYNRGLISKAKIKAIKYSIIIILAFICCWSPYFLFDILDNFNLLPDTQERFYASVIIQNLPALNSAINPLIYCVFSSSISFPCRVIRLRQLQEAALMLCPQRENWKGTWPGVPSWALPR

[3] = target: T5, follicle-stimulating hormone receptor (FSHR) (Homo sapiens, UniProt P23945); test: PathHunter β-arrestin antagonist assay; format: cell-based
T5 sequence (P23945 18-695): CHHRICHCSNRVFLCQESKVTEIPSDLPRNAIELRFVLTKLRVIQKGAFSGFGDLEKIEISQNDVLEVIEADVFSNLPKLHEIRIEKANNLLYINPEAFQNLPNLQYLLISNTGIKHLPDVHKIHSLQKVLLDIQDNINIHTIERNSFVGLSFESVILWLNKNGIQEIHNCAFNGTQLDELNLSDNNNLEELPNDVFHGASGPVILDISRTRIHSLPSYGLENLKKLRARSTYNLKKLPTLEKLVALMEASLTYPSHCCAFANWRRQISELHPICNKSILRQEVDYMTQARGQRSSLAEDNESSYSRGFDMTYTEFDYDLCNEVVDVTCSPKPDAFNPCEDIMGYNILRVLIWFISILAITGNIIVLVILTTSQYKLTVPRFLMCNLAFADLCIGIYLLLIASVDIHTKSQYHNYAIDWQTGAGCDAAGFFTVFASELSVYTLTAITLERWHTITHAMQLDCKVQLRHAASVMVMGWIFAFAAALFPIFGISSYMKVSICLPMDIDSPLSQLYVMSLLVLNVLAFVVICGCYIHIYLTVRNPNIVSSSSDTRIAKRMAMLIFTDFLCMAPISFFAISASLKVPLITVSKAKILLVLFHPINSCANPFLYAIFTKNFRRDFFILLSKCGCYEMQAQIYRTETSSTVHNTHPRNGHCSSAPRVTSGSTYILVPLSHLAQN

[4] = target: T6, prolactin releasing hormone receptor (PRLHR) (Homo sapiens, UniProt P49683); test: PathHunter β-arrestin antagonist assay; format: cell-based
T6 sequence (P49683 1-370): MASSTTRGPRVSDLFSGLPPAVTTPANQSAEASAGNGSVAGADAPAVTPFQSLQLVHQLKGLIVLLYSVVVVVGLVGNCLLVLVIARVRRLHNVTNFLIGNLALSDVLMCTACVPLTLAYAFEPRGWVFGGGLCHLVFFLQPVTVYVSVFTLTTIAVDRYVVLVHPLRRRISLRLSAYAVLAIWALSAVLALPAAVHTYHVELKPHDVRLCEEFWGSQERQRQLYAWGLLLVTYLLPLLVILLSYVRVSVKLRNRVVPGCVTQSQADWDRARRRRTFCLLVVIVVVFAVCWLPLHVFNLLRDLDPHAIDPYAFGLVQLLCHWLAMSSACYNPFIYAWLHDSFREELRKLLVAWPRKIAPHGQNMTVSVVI

AVPR1A = test: PathHunter β-arrestin antagonist assay; format: cell-based; details: primary screen at 20 μM
[5] = test system: dopamine D2b receptor (DRD2L); test: PathHunter β-arrestin antagonist assay; format: cell-based; details: primary screen at 20 μM
AVPR1B = test: PathHunter β-arrestin antagonist assay; format: cell-based; details: primary screen at 20 μM
ADRA2A = test: PathHunter β-arrestin antagonist assay; format: cell-based; details: primary screen at 20 μM
[6] = test system: hydroxytryptamine receptor (HTR1B); test: PathHunter β-arrestin antagonist assay; format: cell-based; details: primary screen at 20 μM
AVPR2 = AVPR2 (Homo sapiens, UniProt P30518); test: PathHunter β-arrestin antagonist assay; format: cell-based
oxytocin receptor (OXTR) = target: T7, oxytocin receptor (OXTR) (Homo sapiens, UniProt P30559); test: PathHunter β-arrestin antagonist assay; format: cell-based
T7 sequence (P30559 1-389): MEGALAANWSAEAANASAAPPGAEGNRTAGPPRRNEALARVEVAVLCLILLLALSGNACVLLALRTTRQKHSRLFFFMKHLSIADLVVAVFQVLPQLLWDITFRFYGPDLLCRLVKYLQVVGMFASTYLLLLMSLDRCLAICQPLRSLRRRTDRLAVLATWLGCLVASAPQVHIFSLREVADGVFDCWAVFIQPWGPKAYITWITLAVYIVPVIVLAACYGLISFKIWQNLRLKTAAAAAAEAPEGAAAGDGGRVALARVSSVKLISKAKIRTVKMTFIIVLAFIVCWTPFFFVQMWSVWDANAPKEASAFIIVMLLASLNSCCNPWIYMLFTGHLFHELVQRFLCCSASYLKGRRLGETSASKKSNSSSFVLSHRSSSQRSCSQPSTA

Chain of CXCR4 (P61073 whole entry): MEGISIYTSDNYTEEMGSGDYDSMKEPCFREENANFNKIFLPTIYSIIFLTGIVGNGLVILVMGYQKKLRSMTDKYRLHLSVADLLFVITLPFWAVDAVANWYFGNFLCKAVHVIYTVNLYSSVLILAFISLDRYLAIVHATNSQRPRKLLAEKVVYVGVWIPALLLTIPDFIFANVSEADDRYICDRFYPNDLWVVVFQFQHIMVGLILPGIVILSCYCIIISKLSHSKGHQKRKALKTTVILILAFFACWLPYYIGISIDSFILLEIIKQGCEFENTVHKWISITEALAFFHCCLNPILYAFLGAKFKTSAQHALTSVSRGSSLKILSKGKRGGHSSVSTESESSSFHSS
Chain of chemokine receptor CCR8 (P51685 whole entry): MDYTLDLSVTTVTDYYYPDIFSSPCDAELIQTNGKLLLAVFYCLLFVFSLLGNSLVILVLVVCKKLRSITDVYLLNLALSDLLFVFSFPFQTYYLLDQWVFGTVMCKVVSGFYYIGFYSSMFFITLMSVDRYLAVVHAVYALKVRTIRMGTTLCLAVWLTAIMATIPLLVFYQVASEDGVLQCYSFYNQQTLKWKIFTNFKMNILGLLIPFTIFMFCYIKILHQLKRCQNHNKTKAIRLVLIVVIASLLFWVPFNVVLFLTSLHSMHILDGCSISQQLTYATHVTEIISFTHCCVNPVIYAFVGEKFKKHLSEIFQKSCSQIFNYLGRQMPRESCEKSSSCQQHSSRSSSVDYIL
Chain of AVPR2 (P30518 whole entry): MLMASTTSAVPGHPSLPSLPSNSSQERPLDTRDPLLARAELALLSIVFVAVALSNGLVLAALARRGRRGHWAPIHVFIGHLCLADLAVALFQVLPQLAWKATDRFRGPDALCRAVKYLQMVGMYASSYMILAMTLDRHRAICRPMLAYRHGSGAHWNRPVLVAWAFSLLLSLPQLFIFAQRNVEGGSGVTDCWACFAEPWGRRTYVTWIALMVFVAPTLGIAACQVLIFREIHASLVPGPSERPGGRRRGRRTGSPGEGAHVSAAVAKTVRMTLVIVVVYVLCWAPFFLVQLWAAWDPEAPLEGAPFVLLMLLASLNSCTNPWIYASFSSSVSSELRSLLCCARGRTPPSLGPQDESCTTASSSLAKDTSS

COC(=O)[C@@H]1[C@H]2C[C@@H](c3[nH]c4ccccc4c3CCn3cc(-c4cccc(Cl)c4)nn3)N(C#N)C[C@@H]2CC[C@@H]1O [Y1f]
antagonistic activity in the primary screen (panel of 168 GPCRs): significant inhibitory activities
hit rate (panel of 168 GPCRs): 3.0%
number of GPCRs antagonized at ≥80% inhibition (panel of 168 GPCRs): five
inhibition at 20 µM [1]: ≥ 80%
inhibition at 20 µM (CX3CR1): ≥ 80%
inhibition at 20 µM (chemokine receptor CCR8): ≥ 80%
inhibition at 20 µM (CXCR4): ≥ 80%
inhibition at 20 µM (chemokine receptor CCR3): ≥ 80%

COC(=O)[C@@H]1[C@H]2C[C@@H]([C@@]3(CCn4cc(CCCCO)nn4)C(=O)Nc4ccccc43)N(C#N)C[C@@H]2CC[C@@H]1O [Y2e]
antagonistic activity in the primary screen (panel of 168 GPCRs): inactive

COC(=O)[C@@H]1[C@H]2C[C@@H]3N(CC[C@@]34C(=O)N(c3cncc(OC)n3)c3ccccc34)C[C@@H]2CC[C@@H]1O [Y3h]
antagonistic activity in the primary screen (panel of 168 GPCRs): inactive

COC(=O)[C@@H]1[C@H]2C[C@@H]3OCc4ccccc4-n4c3c(c3ccccc34)CCN(C#N)C[C@@H]2CC[C@@H]1O [Y4a]
antagonistic activity in the primary screen (panel of 168 GPCRs): inactive

COC(=O)[C@@H]1[C@H]2C[C@H]3OCc4ccccc4-n4c3c(c3ccccc34)CCN(C#N)C[C@@H]2CC[C@@H]1O [Y5a]
antagonistic activity in the primary screen (panel of 168 GPCRs): inactive

COC(=O)[C@@H]1[C@H]2C[C@@H](OCc3ccc(Br)cc3)c3[nH]c4ccccc4c3CCN(C#N)C[C@@H]2CC[C@@H]1O [Y6p]
antagonistic activity in the primary screen (panel of 168 GPCRs): significant inhibitory activities
hit rate (panel of 168 GPCRs): 2.4%
number of GPCRs antagonized at ≥80% inhibition (panel of 168 GPCRs): four
inhibition at 20 µM [2]: ≥ 80%
inhibition at 20 µM [3]: ≥ 80%
inhibition at 20 µM [4]: ≥ 80%

COC(=O)[C@@H]1[C@H]2C[C@@H]3N(CC[C@@]34C(=O)N(Cc3cccc(OC)c3)c3ccccc34)C[C@@H]2CC[C@@H]1OCc1cccc(OC)c1 [Y7g]
antagonistic activity in the GPCR screen (AVPR1A): inhibited
antagonistic activity in the GPCR screen [5]: not inhibited
antagonistic activity in the primary screen (panel of 168 GPCRs): significant inhibitory activities
hit rate (panel of 168 GPCRs): 2.4%
antagonistic activity in the GPCR screen (AVPR1B): inhibited
antagonistic activity in the GPCR screen (ADRA2A): not inhibited
antagonistic activity in the GPCR screen [6]: not inhibited

COC(=O)[C@@H]1[C@H]2C[C@H]3c4[nH]c5ccccc5c4CCN3C[C@@H]2CC[C@@H]1O [yohimbine, reference compound]
antagonistic activity in the GPCR screen [5]: inhibited
inhibition at 20 µM (AVPR2): ≤ 5%
inhibition at 20 µM (oxytocin receptor (OXTR)): ≤ 5%
antagonistic activity in the GPCR screen [6]: inhibited
